Results on 6 molecules are retold here after patent publication US9156877B2, “17-hydroxy-17-pentafluorethyl-estra-4,9(10)-dien-11-benzylidene derivatives, methods for the production thereof and use thereof for treating diseases” (Bayer Intellectual Property GmbH, priority 2009, dated 2015).

Data set [1] concerns the target T1, human progesterone receptor A (Homo sapiens, UniProt P06401).
T1 construct: expressed in transfected cells; host or cells: SK-N-MC human neuroblastoma cells, stably transfected with pRChPR-A-neo and pMMTV-LUC
T1 sequence (P06401 1-769 isoform P06401-2): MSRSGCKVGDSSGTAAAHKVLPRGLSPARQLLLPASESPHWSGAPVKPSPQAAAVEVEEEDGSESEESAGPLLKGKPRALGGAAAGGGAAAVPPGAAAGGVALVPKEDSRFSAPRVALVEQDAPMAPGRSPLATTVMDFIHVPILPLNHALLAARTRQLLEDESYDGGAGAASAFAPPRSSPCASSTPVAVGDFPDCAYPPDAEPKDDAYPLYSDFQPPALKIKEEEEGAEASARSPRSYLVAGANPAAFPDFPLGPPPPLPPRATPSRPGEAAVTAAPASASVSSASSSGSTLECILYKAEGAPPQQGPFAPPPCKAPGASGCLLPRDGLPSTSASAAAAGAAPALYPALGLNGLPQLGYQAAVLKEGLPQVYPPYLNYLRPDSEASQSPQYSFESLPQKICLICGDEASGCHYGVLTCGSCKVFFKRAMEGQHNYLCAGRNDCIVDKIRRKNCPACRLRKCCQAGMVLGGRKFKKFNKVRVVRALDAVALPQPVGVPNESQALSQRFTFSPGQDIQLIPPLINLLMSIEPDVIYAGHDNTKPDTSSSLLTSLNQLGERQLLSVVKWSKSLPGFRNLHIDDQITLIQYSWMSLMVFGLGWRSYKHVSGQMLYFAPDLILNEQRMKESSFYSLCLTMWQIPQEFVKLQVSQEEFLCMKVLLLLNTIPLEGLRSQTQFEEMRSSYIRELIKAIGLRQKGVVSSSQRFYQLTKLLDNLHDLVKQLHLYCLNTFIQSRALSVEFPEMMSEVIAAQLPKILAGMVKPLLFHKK
The data set is described as follows: Progesterone receptor-antagonistic action in stably transfected SK-N-MC cells with MMTV-LUC reporter (PR-A). As to conditions: antagonistic potency against 0.1 nmol/l promegestone, 24 hours, luciferase. The data set is classed as cell-based. Summed up: (§1)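 SK-N-MC neuroblastoma cells stably expressing human PR-A or PR-B plus MMTV-LUC reporter, treated 24 h with test compound (0.01 nmol/l–[…]). Antagonist mode used co-treatment with 0.1 nmol/l promegestone; luciferase in lysates read as RLU, expressed as % efficacy and IC50/EC50.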

The nature of data set [2]: Metabolic stability in human liver microsomes. In kind it is in vitro ADME. The conditions noted are these: for Predicted clearance [l/h/kg] Human: 1 μM, well-stirred model. The method, then: (§2) Determination of Metabolic Stability in Human and Rat Liver Microsomes
Isolated human liver microsomes (HLM) were used to assess the metabolic stability of compounds of general formula I.
(§3) The incubations were conducted with 2.4 ml of HLM solution (protein content 0.5 mg/ml), 30 μl of the test compound (final concentration 1 μM) and 0.6 ml of the cofactor mixture (═NADPH-generating system composed of 3 IU glucose-6-phosphate dehydrogenase, 14.6 mg glucose-6-phosphate, 1.2 mg NADP) at 37° C. in 100 mM phosphate buffer at pH 7.4. Samples were taken at 6 time points (2-60 min) and precipitated with an equal volume of methanol, and the recovery of the test substances used in the supernatant was determined by LC-MS/MS analysis. The half-life of substance degradation determined therefrom was used to calculate what is called the intrinsic clearance of the substance in the liver microsome preparation. […] In addition, under the assumptions that (i) absorption of the test substance is 100%, and (ii) the first pass is completely reflected by liver microsome metabolism, a maximum oral bioavailability (Fmax) was calculated.

Data set [3] deals with T2, human progesterone receptor B (Homo sapiens, UniProt P06401).
T2 construct: expressed in transfected cells; host or cells: SK-N-MC human neuroblastoma cells, stably transfected with pRChPR-B-neo and pMMTV-LUC
T2 sequence (P06401 1-933): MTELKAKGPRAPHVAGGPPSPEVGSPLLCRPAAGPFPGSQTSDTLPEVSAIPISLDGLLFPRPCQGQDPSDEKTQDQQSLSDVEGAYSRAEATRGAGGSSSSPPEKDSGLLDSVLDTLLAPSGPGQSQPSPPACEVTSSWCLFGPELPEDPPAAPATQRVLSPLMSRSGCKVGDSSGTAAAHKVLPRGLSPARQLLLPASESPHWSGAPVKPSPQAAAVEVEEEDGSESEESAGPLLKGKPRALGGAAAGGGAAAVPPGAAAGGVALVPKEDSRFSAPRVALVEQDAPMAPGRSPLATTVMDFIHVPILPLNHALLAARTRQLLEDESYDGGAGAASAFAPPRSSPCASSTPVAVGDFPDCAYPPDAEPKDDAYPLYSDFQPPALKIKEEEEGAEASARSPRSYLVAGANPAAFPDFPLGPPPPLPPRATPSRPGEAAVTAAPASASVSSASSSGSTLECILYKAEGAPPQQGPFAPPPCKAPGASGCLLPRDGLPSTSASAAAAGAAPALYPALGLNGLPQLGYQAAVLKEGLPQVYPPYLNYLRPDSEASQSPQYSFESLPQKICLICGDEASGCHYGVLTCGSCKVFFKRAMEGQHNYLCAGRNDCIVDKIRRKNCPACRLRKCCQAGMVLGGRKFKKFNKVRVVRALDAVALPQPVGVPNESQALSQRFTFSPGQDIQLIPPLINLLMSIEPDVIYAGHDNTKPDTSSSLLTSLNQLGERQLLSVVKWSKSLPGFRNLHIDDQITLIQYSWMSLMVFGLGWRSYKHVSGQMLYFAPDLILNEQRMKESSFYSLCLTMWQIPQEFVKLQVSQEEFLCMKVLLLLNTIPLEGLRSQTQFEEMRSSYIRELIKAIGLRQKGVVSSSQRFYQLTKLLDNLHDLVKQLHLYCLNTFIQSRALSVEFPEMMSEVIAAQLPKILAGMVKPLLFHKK
As to the kind of experiment: Progesterone receptor-antagonistic action in stably transfected SK-N-MC cells with MMTV-LUC reporter (PR-B). The data set is classed as cell-based. As to conditions: antagonistic potency against 0.1 nmol/l promegestone, 24 hours, luciferase. Summed up:
as §1

The subject of another data set is pregnant rats. As to the kind of experiment: Abortion test on female rats. The conditions noted are these: d5-d7 p.c., autopsy d9 p.c. In kind it is in vivo, rat. The method, then: Abortion Test on Female Rats
The action of progesterone and of the progesterone receptor is a fundamental precondition for successful pregnancy or gestation in mammals. The progesterone-antagonistic action of the inventive compounds was tested on pregnant rats (6 rats per group) on days 5 to 7 post coitum under conventional housing and feeding conditions.
After successful mating, the pregnant animals (presence of sperm in the vaginal smear on day 1 of pregnancy=d1 p.c.) were randomized and divided into the treatment group and the control group. The animals then each received subcutaneously or orally 0.15; 0.5; 1.5 or 5 mg/kg of the test compound or 1.0 ml/kg of vehicle (benzyl benzoate/castor oil: 1+4 [v/v]) daily from day 5 to day 7 (d5-d7 p.c.).
Autopsy was conducted on day 9 (d9 p.c.). As a characteristic of progesterone receptor-antagonistic action, the uterus was examined for the presence of nidation sites. Complete absence, or else the presence of pathological, haemorrhagic or otherwise abnormal nidation sites, on day 9 (d9 p.c.) was considered as abortion.

Data set [4] can be described thus: Solubility in aqueous medium at pH 7.4. As to conditions: for solubility (in words): aqueous medium under physiological conditions; for solubility: aqueous medium, pH 7.4, aqueous buffer. The data set is classed as physicochemical. An excerpt: In addition, some compounds have an unusually good solubility, for this active ingredient class, in aqueous medium under physiological conditions (Table 2).

Data set [5] can be described thus: Metabolic stability in rat liver microsomes. In kind it is in vitro ADME. The conditions noted are these: for Predicted clearance [l/h/kg] Rat: well-stirred model. As for the experimental part:
as §2, §3

Structures are written as SMILES. ≈ marks a conversion by molar mass, not a printed value.

For `C[C@]12C[C@H](c3ccc(/C=C/c4ccc(C(=O)O)cc4)cc3)C3=C4CCC(=O)C=C4CC[C@H]3[C@@H]1CC[C@@]2(O)C(F)(F)C(F)(F)F` [Example 29, 4-{(E)-2-[4-((8S,11R,13S,14S,17S)-17-hydroxy-13-methyl-3-oxo-17-pentafluoroethyl-2,3,6,7,8,11,12,13,14,15,16,17-dodecahydro-1H-cyclopenta[a]phenanthren-11-yl)phenyl]vinyl}benzoic acid], the IC50 (in general, the concentration at which inhibition is half-maximal) is 0.08 nM in data set [1] and 0.09 nM in data set [3]. In addition, in data set [2], the “Predicted Fmax [%] (maximum oral bioavailability) Human” value is listed as 94%. Besides, the “Predicted clearance [l/h/kg] Human” value in data set [2] was 0.08 L/h/kg. The “Abortion rate [%]” value in the data set on pregnant rats (daily dose 0.5 mg/kg p.o.) came out at 0%; in the data set with pregnant rats (daily dose 1.5 mg/kg p.o.), 16.7%; with pregnant rats (daily dose 5.0 mg/kg p.o.), 100.0%. Further, the “solubility (in words)” value in data set [4] is on record as “improved”. The solubility (commonly the dissolved amount per volume that the medium holds) in data set [4] was 102 µg/mL (≈ 166 µM). Moreover, in data set [5], the “Predicted Fmax [%] (maximum oral bioavailability) Rat” value is listed as 100%. The “Predicted clearance [l/h/kg] Rat” value in data set [5] is 0.0 L/h/kg.

For the molecule `C[C@]12C[C@H](c3ccc(/C=C/CC(C#N)C#N)cc3)C3=C4CCC(=O)C=C4CCC3C1CC[C@@]2(O)C(F)(F)C(F)(F)F` (stereo partly drawn) [Example 27, 2-{(E)-3-[4-((8S,11R,13S,14S,17S)-17-hydroxy-13-methyl-3-oxo-17-pentafluoroethyl-2,3,6,7,8,11,12,13,14,15,16,17-dodecahydro-1H-cyclopenta[a]phenanthren-11-yl)phenyl]allyl}malonitrile], it took 0.2 nM to reach half-maximal inhibition in data set [1] (IC50). In data set [2], the “Predicted Fmax [%] (maximum oral bioavailability) Human” value is reported as 26% and the “Predicted clearance [l/h/kg] Human” value is 0.98 L/h/kg. In data set [3], this molecule displayed an IC50 of 0.1 nM. In data set [4], this molecule had a solubility of 10 µg/mL (≈ 17.5 µM). In addition, in data set [5], the “Predicted Fmax [%] (maximum oral bioavailability) Rat” value was 79% and the “Predicted clearance [l/h/kg] Rat” value is 0.9 L/h/kg.

Molecule `C[C@]12C[C@H](c3cccc(/C=C/c4ccccn4)c3)C3=C4CCC(=O)C=C4CC[C@H]3[C@@H]1CC[C@@]2(O)C(F)(F)C(F)(F)F` [Example 21, (8S,11R,13S,14S,17S)-17-hydroxy-13-methyl-17-pentafluoroethyl-11-[3-((E)-2-pyridin-2-ylvinyl)phenyl]-1,2,6,7,8,11,12,13,14,15,16,17-dodecahydrocyclopenta[a]phenanthren-3-one] came in with an IC50 in data set [1] of 0.9 nM. Also, in data set [2], the “Predicted Fmax [%] (maximum oral bioavailability) Human” value is given as 48% and the “Predicted clearance [l/h/kg] Human” value was 0.7 L/h/kg. In data set [3], this molecule yielded an IC50 of 1 nM. The molecule also yielded a solubility in data set [4] of 7 µg/mL (≈ 12.3 µM). Further, in data set [5], the “Predicted Fmax [%] (maximum oral bioavailability) Rat” value is given as 88% and the “Predicted clearance [l/h/kg] Rat” value was 0.5 L/h/kg.

The molecule `C[C@]12C[C@H](c3ccc(/C=C/C#N)cc3)C3=C4CCC(=O)C=C4CC[C@H]3[C@@H]1CC[C@@]2(O)C(F)(F)C(F)(F)F` [Example 14, (E)-3-[4-((8S,11R,13S,14S,17S)-17-hydroxy-13-methyl-3-oxo-17-pentafluoroethyl-2,3,6,7,8,11,12,13,14,15,16,17-dodecahydro-1H-cyclopenta[a]phenanthren-11-yl)phenyl]acrylonitrile] showed an IC50 in data set [1] of 0.011 nM. For the same molecule, in data set [2], the “Predicted Fmax [%] (maximum oral bioavailability) Human” value was 31% and the “Predicted clearance [l/h/kg] Human” value is 0.9 L/h/kg. The molecule further came in with an IC50 in data set [3] of 0.011 nM. This molecule also returned a solubility in data set [4] of 9 µg/mL (≈ 17.4 µM). In addition, in data set [5], the “Predicted Fmax [%] (maximum oral bioavailability) Rat” value is given as 75% and the “Predicted clearance [l/h/kg] Rat” value was 1.1 L/h/kg.

`C[C@]12C[C@H](c3ccc(/C=C/C(=O)O)cc3)C3=C4CCC(=O)C=C4CC[C@H]3[C@@H]1CC[C@@]2(O)C(F)(F)C(F)(F)F` [Example 13, (E)-3-[4-((8S,11R,13S,14S,17S)-17-hydroxy-13-methyl-3-oxo-17-pentafluoroethyl-2,3,6,7,8,11,12,13,14,15,16,17-dodecahydro-1H-cyclopenta[a]phenanthren-11-yl)phenyl]acrylic acid] yielded an IC50 in data set [1] of 0.1 nM. For the same molecule, in data set [2], the “Predicted Fmax [%] (maximum oral bioavailability) Human” value is given as 52% and the “Predicted clearance [l/h/kg] Human” value is 0.63 L/h/kg. Also, in data set [3], the midpoint of inhibition, the IC50, lay at 0.3 nM. For the same molecule, in data set [4], the “solubility (in words)” value is recorded as “improved” and the solubility was > 179 µg/mL. In data set [5], the “Predicted Fmax [%] (maximum oral bioavailability) Rat” value is listed as 97% and the “Predicted clearance [l/h/kg] Rat” value is 0.1 L/h/kg.

Take `C[C@]12C[C@H](c3cccc(/C=C/c4ccncc4)c3)C3=C4CCC(=O)C=C4CC[C@H]3[C@@H]1CC[C@@]2(O)C(F)(F)C(F)(F)F` [Example 23, (8S,11R,13S,14S,17S)-17-hydroxy-13-methyl-17-pentafluoroethyl-11-[3-((E)-2-pyridin-4-ylvinyl)phenyl]-1,2,6,7,8,11,12,13,14,15,16,17-dodecahydrocyclopenta[a]phenanthren-3-one]: the IC50 in data set [1] stood at 0.2 nM. Besides, in data set [2], the “Predicted Fmax [%] (maximum oral bioavailability) Human” value is given as 67% and the “Predicted clearance [l/h/kg] Human” value was 0.4 L/h/kg. Moreover, inhibition in data set [3] was half-maximal at 0.2 nM (IC50). This molecule also had a solubility in data set [4] of 8 µg/mL (≈ 14 µM). In data set [5], the “Predicted Fmax [%] (maximum oral bioavailability) Rat” value is 95% and the “Predicted clearance [l/h/kg] Rat” value is 0.2 L/h/kg.
